Laboratory results taken from patent US20190105260A1, “COMPOSITIONS AND METHODS TO PROMOTE WOUND HEALING” (The Regents of the University of California, priority 2016, published 2019).

Key:
[1] = tested on: Neonatal Human Keratinocytes (NHKs); assay: Scratch wound assay; format: cell-based
Protocol: (§1) FIGS. 2A-C illustrate that serotonin (5-HT) increases keratinocyte migratory speed and re-epithelialization in a scratch wound ex vivo model, likely through the ERK-STAT3-NFkB pathway.
Neonatal Human Keratinocytes (NHKs) were either non-treated (Control) or treated with 5-HT (1 μM) and FLX (0.01 μM, 0.1 μM, 1 μM) and/or 5HTR1A blocker (100 nM NAN190) and/or 5HTR2A antagonist (1 μM Ketanserin or KET). NHKs from at least 3 different donors were plated at fully confluent density and treated with Mitomycin to prevent proliferation. P-200 tips were used to induce a scratch wound in the middle of each well and time-lapse images were recorded every 30 minutes for 6 hours and % healed were calculated as previously described. Data represented as Mean±SEM. Student t-tests were used for statistical analysis. *, p<0.05; **, p<0.01; ***, p<0.001.
NHKs were isolated and cultured from human foreskin as previously reported. […]
NHKs from 3 different donors were plated on collagen-coated 12-well plates at fully confluent density and treated with Mitomycin C to prevent proliferation. P-200 tips were used to induce a scratch wound in the middle of each well and time-lapse images were recorded every 30 minutes for 6 hours and % healed were calculated as following: % Healed=([(SA)]_(t=0)−[(SA)]_(t=6))/[(SA)]_(t=0) which SA represents surface area of the scratch wound gap at 0-hour (t=0) or 6-hour time point. […]

[2] = tested on: Db/Db female mice, diabetic model of impaired wound healing; assay: In vivo splinted full-thickness excisional wound model, re-epithelialization analysis; set-up: species or system mouse; conditions: for re-epithelialization compared to PEG vehicle control: daily topical 0.2% fluoxetine or 0.01% timolol, day 12; for re-epithelialization vs vehicle control: daily topical 0.2% fluoxetine or 2% serotonin in 5% polyethylene glycol, day 10
Protocol: Panel B: Histomorphometric analysis of wounds. Representative histology sections for each group were chosen. Following euthanasia of animals, wounds were excised, biopsied and bisected. Wound tissue was fixed in paraformaldehyde for 12-16 hours and then paraffin embedded. Serial 5 μm sections were obtained from the center of the wound and the section with the largest wound bed (as defined by distance between hair follicles) was stained with hemotoxylin and eosin. Images were taken using 10× objective on a Keyance microscope. Panels C-D: Re-epithelialization was determined on sections created as in panel B. Image J analysis software was utilized to divide the re-epithelialized tissue (distance from hair follicle to remaining wound) by the entire original wound surface (as defined as distance between hair follicles). Panel D provides the distribution of data depicted in Panel C. P values were derived using a 2-tailed t-test.
13 week-old Db/Db female mice underwent full-thickness excisional biopsies with 8 mm punch biopsies. Wounds were splinted to prevent contraction. At day 12, animals were sacrificed and wounds were harvested to assess re-epithelialization. Representative histology sections for each group were chosen. Following euthanasia of animals, wounds were excised, biopsied and bisected. Wound tissue was fixed in paraformaldehyde for 12-16 hours and then paraffin embedded. Serial […] sections were obtained from the center of the wound and the section with the largest wound bed (as defined by distance between subcutaneous fat tissue) was stained with hemotoxylin and eosin. Images were taken using 10× objective on a Keyance microscope. (A) Re-epithelialization was determined on sections created. Image J analysis software was utilized to divide the re-epithelialized tissue by the entire original wound surface. (B) Percent of wounds at different stages of re-epithelialization was quantified. Data represented as Mean±SEM. P values were derived using a 2-tailed t-test. N=5/group.
13 week-old Db/Db female mice underwent full-thickness excisional wounding with 8 mm punch biopsy tool. All wounds were splinted to prevent contraction. […] At day 11, animals were sacrificed and wounds were harvested to assess re-epithelialization. Representative histology sections for each group were chosen. Following euthanasia of animals, wounds were excised, biopsied and bisected. Wound tissue was fixed in paraformaldehyde for 12-16 hours and then paraffin embedded. Serial […] sections were obtained from the center of the wound and the section with the largest wound bed (as defined by distance between subcutaneous fat tissue) was stained with hemotoxylin and eosin. Images were taken using 10× objective on a Keyance microscope. Re-epithelialization was determined on sections created. Image J analysis software was utilized to divide the re-epithelialized tissue by the entire original wound surface. Data represented as Mean±SEM. N=5/group.
Diabetic status (blood glucose >300 mg/dl) was confirmed in female Db/Db mice at age 11 weeks. At age 13 weeks, mice underwent hair removal and synchronization of follicle cycling through depilation and shaving. Synchronization was confirmed based on lack of skin pigmentation in included mice. 1 day after synchronization, 13-week-old Db/Db female mice underwent full-thickness excisional wounding using a splinted model as described. Briefly, 8 mm punch biopsies were used to make full-thickness excisional wounds. […]

[3] = tested on: wound beds of Db/Db female mice; assay: Immunohistochemistry of wound beds (Gr-1, F4/80, CD31); format: in vivo, mouse; conditions: topical treatment, day 10
Protocol: 13 week-old Db/Db female mice underwent full-thickness excisional biopsies with 8 mm punch biopsies. Wounds were splinted to prevent contraction. At day 10, animals were sacrificed and wounds were harvested to assess re-epithelialization. Representative histology sections for each group were chosen. Following euthanasia of animals, wounds were excised, biopsied and bisected. Wound tissue was fixed in paraformaldehyde for 12-16 hours and then paraffin embedded. Serial […] sections were obtained from the center of the wound and the section with the largest wound bed (as defined by distance between subcutaneous fat tissue—indicated by yellow arrows in figure). Images were taken using 10× objective on a Keyance microscope. Sections were stained with antibody to Gr-1 (A), CD31 (B) or F4/80 (C) to assess neutrophil, endothelial cell or macrophage numbers, respectively, in the wound beds. Wound bed area was outlined in Spectrum software (demarcated by yellow arrows in this figure), which then calculated the number of positive cells. Data is presented as positive cells/mm^2. P values were derived using a 1-tailed t-test. *, p<0.05; **, p<0.01. N=5/group.
Following euthanasia, wound tissue was harvested and processed as described above. Antibodies: F4/80 (Serotec, now BioRad MCA497A488, clone CI:A3-1, 1:100 dilution); GR-1 (Biolegend, catalog number 108402, clone RB6-8C5, 1:200 dilution); CD31 (Santa Cruz, catalog number sc1506, clone M20, 1:1800 dilution). Wound beds were analyzed in Spectrum software (UC Davis). Wound beds were outlined based on subcutaneous fat presence and positive cells were calculated as #/mm^2 of wound bed.

[4] = tested on: bone marrow-derived macrophages (BMDMs), M2 polarization; assay: In vitro macrophage polarization (RT-PCR, flow cytometry); format: cell-based, mouse; conditions: for effect on fluoxetine-enhanced M2 polarization (CD206+ cells, flow cytometry): added to fluoxetine, 1 μM Ketanserin, 100 nM NAN-190, 24 hours
Protocol: Bone marrow described macrophages from wild-type C57/B6J mice were harvested and cultured under polarizing conditions towards M0 (no polarization; normal culture medium), M1 (using LPS and IFNγ) or M2 (using IL-4 and IL-13). […] M2 activation status was assessed using RT-PCR (normalized to HSP90) for CD206, Ym-1 and Arg-1. M1 activation status was assessed using TNFα (A, B). C: At day 7 of macrophage maturation, adherent bone marrow derived monocytes in culture were identified with macrophage markers (CD11b and F4/80) using flow cytometry. After 24 hours, CD206 expression was identified in treated group (C). Results were then quantified and reported (D). Data presented as average±SEM. ** p<0.01.
Wild type C57BL/6 male and female mice were used. Bone marrow-derived (BMD) cells were isolated from mouse femurs and tibias. ACK solution (Thermo Fisher catalog 50-983-220) was used for 5 minutes at 37° C. to lyse red blood cells. BMD macrophages (BMDMs) were matured with (20 ng/mL) M-CSF (R&D) for 7 days. On day 7, BMDM phenotype was confirmed with flow cytometry by CD11b and F4/80 markers (Biolegend). Following maturation, BMDMs were either polarized towards M1 lineage with 10 ng/ml LPS (Sigma Aldrich) and 100 ng/ml IFN-g (R&D) or M2 lineage with 20 ng/ml IL-4 (PeproTech) and IL-13 (R&D) in cRPMI (1×RPMI (Cellgro), 10% FBS, 1× sodium pyruvate (GIBCO), 1× penicillin/streptomycin (GIBCO) at 37° C. for 24 hours. Non-polarized BMDMs and M1-polarized BMDMs were used as experimental controls for polarization procedure. M2-polarized BMDMs were co-treated with either PBS or FLX and/or 100 nM NAN-190 or 1 μM Ketanserin. Cells were either collected after 4 hours by scraping and stored in buffer RLT (Qiagen) at −80° C. or were read with flow cytometry after 24 hours and data were appropriately compensated and analyzed by FlowJo.
RT-PCR was performed using PowerUp SYBR Green Master Mix (Thermo/Applied Biosystems). Data was analyzed using the ΔΔCt method and normalized using geometric mean of the housekeeping genes (GAPDH, Hsp90, 18S rRNA). Fold change is shown relative to control groups.

[5] = tested on: CFSE-labeled CD4+CD25- effector T cells stimulated with CD11c+ dendritic cells; assay: Mixed lymphocyte reaction; format: cell-based, mouse; conditions: 1 μM fluoxetine, 10 μM serotonin, 3,000 AMSC or 1,500 BMSC added to co-cultures
Protocol: Panel A: In a mixed lymphocyte reaction, 250,000 Carboxyfluorescein succinimidyl ester (CFSE)-labeled CD4+CD25-effector T cells were cultured with 100,000 CD11c+ dendritic cells as antigen. […] Proliferation was measured based on CFSE dilution. […] P values were derived using a 2-tailed t-test.
Mixed lymphocyte reactions were performed as described. Briefly, allogenic effector B6 CF SE-labeled T cells were incubated in a 96-well plate (250,000/well) with CD11c+ Bal/b APC (100,000/well) that were purified from bulk splenocytes on anti-CD11c-coupled Milteny microbeads. […] Proliferation was measured based on CFSE dilution.

BMSC [6] = assay: BMSC migration assay; format: cell-based; conditions: 10 uM 5HT vs untreated BMSC; BMSC pooled from 3 donors
BMSC [7] = assay: BMSC proliferation in vitro; format: cell-based; conditions: 10 uM 5HT vs untreated BMSC; BMSC pooled from 3 donors
[8] = tested on: HaCaT human keratinocyte cell line; assay: Single cell migration assay; format: cell-based; conditions: HaCaT cells
Excerpt: as §1

[9] = tested on: phosphorylated ERK in keratinocytes; assay: Multiplex assay, phosphorylated ERK; format: cell-based, human; conditions: 10 μM 5-HT for 6 hours, NHKs
Protocol: as §1
(§2) NHKs from 3 different donors were cultured in 100 mm dishes until 80% confluent and treated with 10 μM 5-HT for 6 hours. Protein lysates were collected and quantified with Bradford assays before proceeding according to manufacturer's protocol (Millipore Multiplex Assay (MILLIPLEX® MAP 48-680MAG). Results were normalized to total protein levels quantified separately by Bradford protein assays.

[10] = tested on: phosphorylated STAT3 in keratinocytes; assay: Multiplex assay, phosphorylated STAT3; format: cell-based, human; conditions: 10 μM 5-HT for 6 hours, NHKs
Protocol: as §1, §2

NF-kB in keratinocytes = assay: Multiplex assay, NF-kB; format: cell-based, human; conditions: 10 μM 5-HT for 6 hours, NHKs
Protocol: as §1, §2

[11] = Serotonin degradation in culture (ELISA); format: physicochemical; conditions: after 24 hours in culture, in both the presence and absence of BMSC
Excerpt: Serotonin is rapidly degraded when exposed to in vitro in culture conditions.

[12] = cited from earlier work
[13] = 100 nM fluoxetine, after 4 hours of polarization

CNCCC(Oc1ccc(C(F)(F)F)cc1)c1ccccc1 (centres unmarked) [fluoxetine]
migratory speed of human keratinocytes ([1]; fluoxetine (0.01-1 μM) in the presence of serotonin (1 μM), 6 hours): significantly increased
re-epithelialization compared to PEG vehicle control [2]: increased
re-epithelialization vs vehicle control [2]: significantly improved
increase in re-epithelialization compared to INTEGRA alone ([2]; day 11, all wounds with INTEGRA matrix, 1 μM fluoxetine daily, 250,000 MSC): 17%
angiogenesis (CD31+ endothelial cells) in wound beds vs vehicle [3]: significantly increased
macrophage (F4/80+ cells) numbers in wound beds vs vehicle [3]: significantly increased
neutrophils (Gr-1+ cells) in wound beds vs vehicle [3]: significantly fewer
Arg-1 transcripts (RT-PCR) [4, 13]: significant increased
CD206 transcripts (RT-PCR) [4, 13]: significant increased
Ym-1 transcripts (RT-PCR) [4, 13]: significant increased
M2 polarization of naïve macrophages (CD206+ cells, flow cytometry) ([4]; after 24 hours of M2 polarization): enhanced
T cell proliferation (CFSE dilution) [5]: significantly inhibit

COc1ccccc1N1CCN(CCCCN2C(=O)c3ccccc3C2=O)CC1 [NAN190]
effect on fluoxetine-enhanced M2 polarization (CD206+ cells, flow cytometry) [4]: reversed

O=C(c1ccc(F)cc1)C1CCN(CCn2c(=O)[nH]c3ccccc3c2=O)CC1 [Ketanserin]
effect on fluoxetine-enhanced M2 polarization (CD206+ cells, flow cytometry) [4]: reversed

NCCc1c[nH]c2ccc(O)cc12 [serotonin]
BMSC migratory speed (BMSC [6]): significantly increased
BMSC proliferation (BMSC [7]): significantly increased
keratinocyte migration (single cell migration) [8]: increases
migration of keratinocytes ([1]; primary keratinocytes from 3 donors, 6-hour time point, mitomycin-treated): enhance migration of keratinocytes in a dose-dependent manner
phosphorylation of ERK [9]: significantly increased
phosphorylation of STAT3 [10]: significantly increased
NF-kB protein (NF-kB in keratinocytes): increase
re-epithelialization vs vehicle control [2]: significantly improved
angiogenesis (CD31+ endothelial cells) in wound beds vs vehicle [3]: increasing
macrophage (F4/80+ cells) numbers in wound beds vs vehicle [3]: increasing
neutrophils (Gr-1+ cells) in wound beds vs vehicle [3]: significantly fewer
T cell proliferation (CFSE dilution) [5]: significantly inhibit
serotonin in culture lost [11]: Over 50%

CC(C)(C)NCC(O)COc1cccc2c1CC(O)C(O)C2 (centres unmarked) [Nadolol]
lipid solubility [12]: low

CC(C)(C)NC[C@H](O)COc1nsnc1N1CCOCC1 [timolol]
re-epithelialization compared to PEG vehicle control [2]: increased
